Measured values published in US4022787A (priority 1975, dated 1977).
Structures can show the parent of a compound that is named as a salt.

Tests used:
sweat glands = conditions: cited from earlier work
rabbit eye pupil = conditions: in vivo

| Structure (SMILES) | sweat inhibition (sweat glands) | rabbit eye pupil result compared with test compound (rabbit eye pupil) |
| --- | --- | --- |
| CN1C2CC(OC(=O)C(COC(=O)c3ccccc3)c3ccccc3)CC1C1OC12 (centres unmarked) [benzoyl ester of scopolamine] | valuable for sweat inhibition |  |
| CN1[C@@H]2CC[C@H]1C[C@@H](OC(=O)C(CO)c1ccccc1)C2 (some centres unmarked) [Atropine sulfate] |  | gave similar results |
